According to patent US20100112089A1, “PEPTIDE COMPOUND AND USE THEREOF” (Takeda Pharmaceutical Company Limited, priority 2008, published 2010):
Counter-ions that a name gives are not always drawn. Like-named read-outs stand apart in the source and are kept apart here. Square brackets hold non-standard residues; d marks the D form. Peptide text beside a SMILES is read from it. dPhe(F5) = N[C@H](Cc1c(F)c(F)c(F)c(F)c1F)C(=O)O; dBpa = N[C@H](Cc1ccc(C(=O)c2ccccc2)cc1)C(=O)O; dCha = N[C@H](CC1CCCCC1)C(=O)O

How the values were obtained:
[1] = Pharmacokinetics of CBP501, combination study; type: in vivo, human; settings: for Cl / AUC(0-inf) / Cmax / clearance / half-life: combination with cisplatin; for AUC(0-inf) / Cmax / clearance / half-life: human, in vivo
[2] = at the recommended dose; non-patent literature 15; read-out: Cmax in the human studies; cited from earlier work
[3] = Pharmacokinetics of CBP501, single agent study; type: in vivo, human; settings: for AUC(0-inf) / Cmax / clearance / half-life: human
Source text: PK was examined in cycle (cy) 1. MTD is the level below that where 2 of 3-6 patients (pts) have DLT during cy 1-2.
In the single agent study, PK was examined in cycle 1. Samples were collected on Days 1 and 15 before the start of the infusion, then at various time points over 24 hr from the start of the infusion, as described below.

[4] = system: MSTO-211H cells; assay: Water soluble tetrazolium (WST) analysis; type: cell-based; settings: 72 hours
Method: (§1) The medium was replaced 24 hr after treatment, the cells were incubated for an additional 48 hr, and WST-8 solution (Kishida Chemical Co., Osaka, Japan) was added to each well. After 4 hr of incubation at 37° C., the absorbance at 450 nm was measured by microplate reader (Molecular Devices, Calif.).

[5] = system: NCI-H226 cells; assay: Water soluble tetrazolium (WST) analysis; type: cell-based; settings: 72 hours
Method: as §1

[6] = Tissue distribution of 3H-labelled CBP501, NCI-H226 xenograft model; type: in vivo, SCID mice; settings: NCI-H226 and MSTO-211H xenograft tumors, Table 15
Method: A suspension of NCI-H226 cells was injected subcutaneously into the flanks of six weeks old male severe […] combined immune deficiency (SCID) mice (Charles River Lab., Wilmington, Mass.). The size of tumors was measured three times a week using a caliper. The volumes were calculated using the following formula: volume (cm^3)=[width^2 (mm)×length (mm)]/2000. The relative tumor volume was expressed as the Vt/V0 index, where Vt is the tumor volume on a measured day, and V0 is the volume of the same tumor just before the first treatment. Mean relative tumor sizes with standard error of mean, SEM, were plotted. Body weight was measured three times weekly from the first treatment, and the weight change was expressed as a percentage of the initial weight. Animals were housed in accordance with guidelines from the Association for the Assessment and Accreditation of Laboratory Animal Care International, and the protocols were approved by the institutional animal care committee of CanBas Co., Ltd.
An N-terminal amino acid, p-benzoylphenylalanyl, was ^3H labeled by Daiichi Kagaku Yakuhin Co., Ltd. (Tokyo, Japan).

[7] = CBP501 7.2 mg/m^2, Day 1, mean, N 3
[8] = CBP501 10.8 mg/m^2, Day 1, mean, N 5
[9] = CBP501 16.2 mg/m^2, Day 1, mean, N 3
[10] = CBP501 24.3 mg/m^2, Day 1, mean, N 2
[11] = CBP501 36.45 mg/m^2, Day 1, mean, N 5
[12] = in vivo, 0.9 mg/m2, single agent, 0.9 mg/m^2, Day 1, mean, N 4
[13] = in vivo, 0.9 mg/m2, single agent, 0.9 mg/m^2, Day 15, mean, N 3
[14] = in vivo, 7.2 mg/m2, single agent, 7.2 mg/m^2, Day 1, mean, N 3
[15] = in vivo, 7.2 mg/m2, single agent, 7.2 mg/m^2, Day 15, mean, N 3
[16] = in vivo, 9.57 mg/m2, single agent, 9.57 mg/m^2, Day 1, mean, N 3
[17] = in vivo, 9.57 mg/m2, single agent, 9.57 mg/m^2, Day 15, mean, N 2
[18] = in vivo, 12.73 mg/m2, single agent, 12.73 mg/m^2, Day 1, mean, N 3
[19] = in vivo, 12.73 mg/m2, single agent, 12.73 mg/m^2, Day 15, mean, N 3
[20] = in vivo, 16.93 mg/m2, single agent, 16.93 mg/m^2, Day 1, mean, N 2
[21] = in vivo, 16.93 mg/m2, single agent, 16.93 mg/m^2, Day 15, mean, N 3
[22] = in vivo, 22.5 mg/m2, single agent, 22.5 mg/m^2, Day 1, mean, N 7
[23] = in vivo, 22.5 mg/m2, single agent, 22.5 mg/m^2, Day 15, mean, N 5
[24] = in vivo, […]2, single agent, […]^2, Day 1, mean, N 3
[25] = in vivo, […]2, single agent, […]^2, Day 1, mean, N 4

`N=C(N)NCCC[C@@H](NC(=O)[C@@H](CCCNC(=N)N)NC(=O)[C@@H](CCC(N)=O)NC(=O)[C@@H](CCCNC(=N)N)NC(=O)[C@@H](CCCNC(=N)N)NC(=O)[C@@H](CCCNC(=N)N)NC(=O)[C@@H](CC1CCCCC1)NC(=O)[C@@H](Cc1c(F)c(F)c(F)c(F)c1F)NC(=O)[C@@H](CO)NC(=O)[C@@H](Cc1c[nH]c2ccccc12)NC(=O)[C@@H](CO)NC(=O)[C@H](N)Cc1ccc(C(=O)c2ccccc2)cc1)C(=O)O` [CBP501, H-(D)p-Benzoylphenylalanyl-(D)seryl-(D)tryptophyl-(D)seryl-(D)pentafluorophenylalanyl-(D)cyclohexylalanyl-(D)arginyl-(D)arginyl-(D)arginyl-(D)glutaminyl-(D)arginyl-(D)arginine acetate salt] (H-[dBpa][dS][dW][dS][dPhe(F5)][dCha][dR][dR][dR][dQ][dR][dR]-OH) gave a Cl [1, 7] of 2752 mL/h/m^2, a Cl [1, 8] of 2198 mL/h/m^2 and a Cl [1, 9] of 2124 mL/h/m^2. It also gave a Cl [1, 10] of 1217 mL/h/m^2, a Cl [1, 11] of 971 mL/h/m^2 and a Cl ([1]; CBP501 […]^2, Day 1, mean, N 6) of 2526 mL/h/m^2. It also gave an AUC(0-inf) [1, 7] of 2820 ng·h/mL, a Cmax [1, 7] of 1770 ng/mL and a clearance [1, 7] of 1.25 mL/min/kg. The half-life [1, 7] was 1.7 h, the AUC(0-inf) [1, 8] was 5350 ng·h/mL and the Cmax [1, 8] was 2550 ng/mL. For the same molecule, the clearance [1, 8] was 0.883 mL/min/kg, the half-life [1, 8] was 1.7 h and the AUC(0-inf) [1, 9] was 7640 ng·h/mL. For the same molecule, the Cmax [1, 9] was 3490 ng/mL, the clearance [1, 9] was 0.9 mL/min/kg and the half-life [1, 9] was 2.8 h. For the same molecule, the AUC(0-inf) [1, 10] was 20200 ng·h/mL, the Cmax [1, 10] was 6830 ng/mL and the clearance [1, 10] was 0.567 mL/min/kg. It also gave a half-life [1, 10] of 4.1 h, an AUC(0-inf) [1, 11] of 39400 ng·h/mL and a Cmax [1, 11] of 9490 ng/mL. It also gave a clearance [1, 11] of 0.417 mL/min/kg, a half-life [1, 11] of 3.7 h and a clearance ([1]; CBP501 […]^2, Day 1, mean, N 6) of 1.05 mL/min/kg. The half-life ([1]; CBP501 […]^2, Day 1, mean, N 6) was 3.9 h, the “dose-proportionality of Cmax and AUC” value ([1]; in combination with cisplatin, over the dose range evaluated, acetate salt) was “showed dose-proportionality” and the Cmax [2] was about 4 µM. The “inter-patient variability within dose levels, coefficient of variation” value ([3]; both studies, generally in the range) was 20%-40%, the AUC(0-inf) [3, 12] was 178 ng·h/mL and the Cmax [3, 12] was 121 ng/mL. The clearance [3, 12] was 2.05 mL/min/kg, the half-life [3, 12] was 0.7 h and the AUC(0-inf) [3, 13] was 188 ng·h/mL. It also gave a Cmax [3, 13] of 138 ng/mL, a clearance [3, 13] of 1.8 mL/min/kg and a half-life [3, 13] of 0.6 h. The AUC(0-inf) [3, 14] was 4390 ng·h/mL, the Cmax [3, 14] was 1920 ng/mL and the clearance [3, 14] was 0.817 mL/min/kg. It also gave a half-life [3, 14] of 1.3 h, an AUC(0-inf) [3, 15] of 3660 ng·h/mL and a Cmax [3, 15] of 2010 ng/mL. The clearance [3, 15] was 0.933 mL/min/kg, the half-life [3, 15] was 1.1 h and the AUC(0-inf) [3, 16] was 6480 ng·h/mL. It also gave a Cmax [3, 16] of 2890 ng/mL, a clearance [3, 16] of 0.633 mL/min/kg and a half-life [3, 16] of 2.5 h. It also gave an AUC(0-inf) [3, 17] of 5140 ng·h/mL, a Cmax [3, 17] of 2410 ng/mL and a clearance [3, 17] of 0.783 mL/min/kg. The half-life [3, 17] was 1.2 h, the AUC(0-inf) [3, 18] was 6340 ng·h/mL and the Cmax [3, 18] was 2730 ng/mL. It also gave a clearance [3, 18] of 0.983 mL/min/kg, a half-life [3, 18] of 1.4 h and an AUC(0-inf) [3, 19] of 7660 ng·h/mL. The Cmax [3, 19] was 3080 ng/mL, the clearance [3, 19] was 0.8 mL/min/kg and the half-life [3, 19] was 2.4 h. It also gave an AUC(0-inf) [3, 20] of 14300 ng·h/mL, a Cmax [3, 20] of 4920 ng/mL and a clearance [3, 20] of 0.617 mL/min/kg. For the same molecule, the half-life [3, 20] was 2 h, the AUC(0-inf) [3, 21] was 12600 ng·h/mL and the Cmax [3, 21] was 4640 ng/mL. For the same molecule, the clearance [3, 21] was 0.6 mL/min/kg, the half-life [3, 21] was 2.9 h and the AUC(0-inf) [3, 22] was 16500 ng·h/mL. It also gave a Cmax [3, 22] of 6080 ng/mL, a clearance [3, 22] of 0.667 mL/min/kg and a half-life [3, 22] of 3.2 h. For the same molecule, the AUC(0-inf) [3, 23] was 20200 ng·h/mL, the Cmax [3, 23] was 7490 ng/mL and the clearance [3, 23] was 0.583 mL/min/kg. The half-life [3, 23] was 4 h, the clearance [3, 24] was 0.917 mL/min/kg and the half-life [3, 24] was 1.2 h. It also gave a clearance [3, 25] of 0.867 mL/min/kg, a half-life [3, 25] of 1.7 h and a half-life ([3]; in vivo, […]2, single agent, […]^2, Day 15, mean, N 3) of 1.6 h. The “differences in PK between day 1 and day 15 or between single-agent and combination administration” value ([3]; in vivo) was “No consistent differences”, the “dose range over which dose-proportionality of Cmax and AUC0-inf was observed” value ([3]; in vivo) was 40 fold and the Cl ([3]; single agent, 0.9 mg/m^2, Day 1, mean, N 4) was 5240 mL/h/m^2. It also gave a Cl ([3]; single agent, 0.9 mg/m^2, Day 15, mean, N 3) of 4908 mL/h/m^2, a Cl ([3]; single agent, 7.2 mg/m^2, Day 1, mean, N 3) of 1802 mL/h/m^2 and a Cl ([3]; single agent, 7.2 mg/m^2, Day 15, mean, N 3) of 2041 mL/h/m^2. The Cl ([3]; single agent, 9.57 mg/m^2, Day 1, mean, N 3) was 1599 mL/h/m^2, the Cl ([3]; single agent, 9.57 mg/m^2, Day 15, mean, N 2) was 1954 mL/h/m^2 and the Cl ([3]; single agent, 12.73 mg/m^2, Day 1, mean, N 3) was 2081 mL/h/m^2. The Cl ([3]; single agent, 12.73 mg/m^2, Day 15, mean, N 3) was 1677 mL/h/m^2, the Cl ([3]; single agent, 16.93 mg/m^2, Day 1, mean, N 2) was 1395 mL/h/m^2 and the Cl ([3]; single agent, 16.93 mg/m^2, Day 15, mean, N 3) was 1372 mL/h/m^2. The Cl ([3]; single agent, 22.5 mg/m^2, Day 1, mean, N 7) was 1458 mL/h/m^2, the Cl ([3]; single agent, 22.5 mg/m^2, Day 15, mean, N 5) was 1206 mL/h/m^2 and the Cl ([3]; single agent, […]^2, Day 1, mean, N 3) was 2197 mL/h/m^2. For the same molecule, the Cl ([3]; single agent, […]^2, Day 1, mean, N 4) was 2908 mL/h/m^2, the “dose-proportionality of Cmax and AUC” value ([3]; single agent, days 1 and 15, over the dose range evaluated, acetate salt) was “showed dose-proportionality” and the “cytotoxicity of cisplatin on addition of CBP501” value [4] was “increased”. The “cytotoxicity of cisplatin on addition of CBP501” value [5] was “increased” and the “concentration of CBP501 in the subcutaneous tumor xenograft” value [6] was 1 to 2 µM.
